Values belong to the molecule of their own block, whether it stands above or below them.
How the values were obtained:
Type in all cases: physicochemical
[1] = Mass loss of PCDS diffuser with isopropyl myristate as solvent; conditions: 2% F3 in isopropyl myristate, 170 grams, over 14 days
Description: The first step in solvent validation consists in preparing a device comprising a glass bottle containing a 2% solution of a known pheromone (feline facial pheromone F3) in isopropyl myristate (also termed Myristic acid isopropyl ester, IUPAC name Propan-2-yl tetradecanoate). The initial weight of solution placed in the bottle is 170 grams. Monitoring is carried out over 14 days, with weighing at DO, D7 and D14.

[2] = Indirect assay of rod diffuser solution (GC/FID); conditions: stick diffuser solution, despecified pheromone
Description: Solution integrity was checked at each analysis time. Before each indirect assay, the vial was weighed to visualize mass loss over time. Each vial contained six sticks. • Specifications: the solution must lose mass over time. • Result: Compliant—See FIG. 9 This is the same analytical method as for the diffuser block study, only the sample preparation differs. 1.25 g of solution were weighed into a 25 mL volumetric flask and the volume made up to the mark with acetone. The resulting solution is transferred to a 1.5 mL GC vial for analysis. This is exactly the same calibration range as for the diffuser block study.

[3] = Indirect assay of diffuser blocks (GC/FID, pheromone remaining in the block); conditions: despecified pheromone
Description: Analyses were carried out using the gas chromatography (GC) technique with a flame ionization detector (FID), commonly known as GC/FID. The instrument used was the Shimadzu GC2025.® • Injection: Quantity injected: 1 μL, split 50:1, temperature: 230° C. • Separation: DB-WAX column (Agilent), length: 20 m, diameter: 180 μm, film thickness: […] • Carrier gas: Helium (He) • Analysis time: 11.50 min (not including time to return to equilibrium between each analysis) injection). • Detection: FID, temperature: 250° C., flow rates: H2: 40 mL/min, Air: 400 mL/min, Nitrogen (make-up): 30 mL/min. To obtain a representative sample, “cores” were drilled at various positions in the block and then collected. 2.5 g of gel were weighed into a 50 mL volumetric flask and the volume made up to the beginning of the neck of the flask with acetone. The flask was then placed in an ultrasonic bath for one hour until the block was dissolved (a white precipitate was obtained), then acetone was added to the mark. An aliquot of this solution was placed in a syringe fitted with a syringe filter and filtered to obtain a translucent solution. The resulting solution was transferred to a 1.5 mL GC vial for analysis. The assays were carried out using a calibration range.

[4] = DAP PCDS direct diffusion (SPME-GC/MS); conditions: DAP/PCDS diffuser, 40 mL, 6 capillaries
Description: Three diffusers, each containing 40 mL of solution and 6 capillaries, were prepared and diffused. The first points were measured at T=1d, T=2, and T=3d, then every Monday, Wednesday and Friday of each study week until the diffusers no longer contained any solution. To measure the pheromone released into the air at each study time, the diffuser is first weighed (with the sticks) to measure mass loss, then placed in an enclosed area (in this case, an upside-down aquarium) containing a SPME fiber, as shown in FIG. 24.
The fiber is left to diffuse above the diffuser for 2 hours (a time determined in a previous method development as the optimum time for molecules to adsorb to the phase), then analyzed using the gas chromatography/mass spectrometry (GC/MS) technique.
Three diffusers were studied for greater accuracy. The chromatograms obtained are reprocessed using GC/MS Solution software.
For each chromatographic peak, the area is recorded using GC/MS Solution software, then entered into an Excel spreadsheet. Diffusion curves giving the area of the chromatographic peak corresponding to each active ingredient as a function of time are then plotted.
Analyses were carried out by gas chromatography/mass spectrometry (GC/MS). The instrument was a Shimadzu GCMS QP2010SE® equipped with an AOC 6000® autosampler. Separation was carried out on a ZB-FFAP® column (30 m×0.25 mm×0.25 μm, stationary phase: nitroterephthalic acid-modified polyethylene glycol) supplied by Phenomenex. The furnace temperature was initially set at 80° C. for 1 minute, then increased at 10° C./min to 240° C. and maintained at this temperature for 2 minutes. The carrier gas was helium at a flow rate of 1 mL/min. Analysis time is 19 minutes.
The injector is a split/splitless injector used in split mode (temperature: 250° C., split: 50:1). The SPME fiber was injected directly into the injector and left to desorb for 15 minutes.
The separated molecules were detected using a mass spectrometer equipped with an electron impact source (temperature: 200° C.). The analyzer is a simple quadrupole. The interface temperature is 250° C. Data were acquired in FASST mode (Fast automated SCAN/SIM type), i.e. part of the analysis was performed by scanning all ions (SCAN) and part by selecting specific ions (SIM). Target molecules were thus analyzed using ion selection.

[5] = Direct diffusion of diffuser blocks (SPME GC/MS); conditions: despecified pheromone 2%, 4 weeks
Description: Analyses were carried out using gas chromatography (GC) coupled to a mass spectrometer (MS) detector, a technique commonly referred to as GCMS. The molecules of interest were extracted using the Solid Phase Micro-Extraction (SPME) technique. The instrument used was the following: QP2010SE® from Shimadzu (See FIG. 4).
AOC 6000® automatic feeder • Extraction/SPME fiber: polyacrylate/Fused silica (85 μm), 23 Ga. • Adsorption time: 2 hours (exposure time of fiber above block) (See FIG. 4) • Desorption time: 30 minutes (fiber exposure time in injector) • Fiber-block distance: 2 cm • Injection: split/splitless injector • Temperature: 250° C., split 50 mode. • Separation: ZB-FFAP® column (Phénomenex), length: 30 m, diameter: 250 μm, film thickness: […]
• Carrier gas: Helium (He) • Analysis time: 18 min (not including time to return to equilibrium between each analysis injection • Detection: mass spectrometer with electron impact source/analyzer: quadrupole. • Source temperature: 200° C. • Interface temperature: 250° C. • Scan m/z 50 to m/z 500 • SIM with ions 55, 66 and 74.
Analyses were carried out in triplicate to verify reproducibility of results.
With the SPME method, results are evaluated by measuring the chromatographic peak area. The data have been plotted on diffusion curve (see FIGS. 5 and 6).

[6] = Ratios of molecules diffused through the sticks over time
Description: Furthermore, as small molecules diffuse more, it happens that they lose intensity over the course of the study, so the ratios are different 24 hours after immersing the sticks in the liquid and 21 days later. Here are the ratios for each pheromone studied at the start of the study and at the end.

[7] = Direct diffusion of rod diffuser (SPME GC/MS); conditions: despecified pheromone 2%
Description: This is exactly the same analytical method used for the diffuser block study. The study setup is shown below, also with a two-hour adsorption time-See FIG. 12 showing the set-up. Because of the height of the passive diffusion device, the fiber mounting bracket will not be the same for the block and for the rod device. The distance between the fiber and the device is 10 cm. With the SPME method, results are evaluated by measuring the chromatographic peak area. The data have been plotted to produce a diffusion curve.

[8] = Pheromone migrated to the stick tips (GC/FID); conditions: on stick tips, despecified pheromone
Description: In the course of this study, we also measured the amount of pheromone migrating on the sticks, to check that the pheromone had migrated to the top of the sticks, helping it to diffuse into the air. To do this, the test is the same as for the diffuser blocks: 2.5 g of stick tips are cut off and placed in a 50 mL flask, which is then placed in an ultrasonic bath for one hour. The resulting solution is filtered (to avoid injecting particles into the instrument) and placed in a chromatographic vial for analysis.

[9] = F3P PCDS indirect diffusion, pheromone remaining in solution (GC/FID)
Description: For this study, three diffusers each containing 40 mL of product and 6 capillaries were prepared and diffused. Once a week, on Wednesdays, the amount of pheromone remaining in the solution was monitored by gas chromatography analysis coupled to a flame ionization detector (GC/FID) until no liquid remained. The percentage of pheromone was measured weekly.
Next, the percentage of pheromone was checked by external calibration using a GC/FID calibration range.
Analyses were carried out by gas chromatography coupled to a flame ionization detector. The instrument was a Shimadzu GC 2025® with an AOC20i® autosampler. Separation was performed on an Agilent DB-FFAP® column (30 m×0.25 mm×0.25 μm, stationary phase: nitroterephthalic acid-modified polyethylene glycol). The temperature of the gas chromatography oven was initially maintained at 140° C. for 2 minutes, then increased at 10° C./min to 250° C. and left at this temperature for 3 minutes. The carrier gas was helium at 1 mL/min. Analyses were performed in split mode using a split/splitless injector (temperature: 250° C., split: 1:50).
The detector used was a flame ionization detector. The detector temperature was 250° C. with an air flow rate of 400 mL/min, hydrogen 40 mL/min and nitrogen 30 mL/min.
For this purpose, a calibration range was prepared for each analysis. […]

[10] = DAP quantification at the top of the capillaries (GC/FID); conditions: top of the rods
Description: For this study, three diffusers containing 40 mL of solution and 6 capillaries were used for diffusion. Each week, a diffuser was weighed and the pheromone contained in the liquid solution and on the top of the capillaries was quantified by gas chromatography with flame ionization detector (GC/FID). To quantify the pheromone at the top of the capillaries, approximately 1 cm of the top of the capillaries is cut off with scissors and 0.1 g of the capillary tops is placed in a 25 mL volumetric flask. Acetone is then added up to the beginning of the neck, and the flask is placed in an ultrasonic bath for one hour. Acetone is then topped up to volume, and an aliquot of solution is taken and filtered through a syringe filter for GC/FID analysis. DAP is then quantified by external calibration. For this, five solutions with concentrations ranging from 50% to 150% of the target value (100% being the target value) are prepared to cover a wide concentration range (protocol for preparing the standard range not shown but available). Analyses were carried out using gas chromatography with a flame ionization detector. The instrument was a Shimadzu GC 2025AF® equipped with an AOC20i® autosampler. Separation was carried out on a DB-WAX UI® column (20 m×0.18 mm×0.30 μm, polyethylene glycol (PEG) stationary phase) supplied by Agilent. The oven temperature was initially set at 90° C. and held for 2 minutes, then increased at 20° C./min to 160° C. and held at this temperature for 5 minutes. Finally, the temperature was increased at 20° C./min to 220° C. and held at this temperature for 5 minutes. The carrier gas is helium at a flow rate of 1 mL/min. Analysis time was thus 18.5 minutes. The injector is a split/splitless injector used in split mode (temperature: 230° C., split: 50:1, injected quantity: 1 μL). The detector is a flame ionization detector (FID). Its temperature is 240° C., the hydrogen flow rate is 40 mL/min and the air flow rate is 400 mL/min. A cleaning gas, dinitrogen, is also present at a flow rate of 30 mL/min.

[11] = DAP, 24 h after immersion of sticks
[12] = DAP, 21 days after immersion of sticks (empty tank)
[13] = F3P, 24 h after immersion of the sticks
[14] = F3P, 21 days after immersion of sticks (empty tank)

mass loss of the PCDS diffuser [1]: virtually non-existent
Structure (SMILES): CCCCCCCCCCCCCC(=O)OC(C)C [isopropyl myristate, Propan-2-yl tetradecanoate]

% of the active ingredient in the pheromone ([2]; day 0): 11.9%
% of the active ingredient in the pheromone ([2]; day 7): 11.9%
% of the active ingredient in the pheromone ([2]; day 14): 11.9%
% of the active ingredient in the pheromone ([2]; day 21): 11.4%
% of the active ingredient in the pheromone ([3]; day 0): 12%
% of the active ingredient in the pheromone ([3]; day 7): 11.9%
% of the active ingredient in the pheromone ([3]; day 14): 11.9%
% of the active ingredient in the pheromone ([3]; day 21): 11.7%
% of the active ingredient in the pheromone ([3]; day 28): 11.7%
direct diffusion over time [4]: stable over time
direct diffusion from the diffuser block [5]: diffuse better
ratio of molecules diffused through the sticks [6, 11]: 27 % (w/w)
ratio of molecules diffused through the sticks [6, 12]: 33.5 % (w/w)
ratio of molecules diffused through the sticks ([6]; Despecified pheromone (Core), 5 days after immersion of the sticks): 76 % (w/w)
ratio of molecules diffused through the sticks ([6]; Despecified pheromone (Core), 21 days after immersion of sticks (empty tank)): 70 % (w/w)
ratio of molecules diffused through the sticks [6, 13]: 4 % (w/w)
ratio of molecules diffused through the sticks [6, 14]: 8.7 % (w/w)
% of the active ingredient in the pheromone ([8]; day 7): 9.2%
% of the active ingredient in the pheromone ([8]; day 14): 8.2%
% of the active ingredient in the pheromone ([8]; day 21): 6.4%
Structure (SMILES): CCCCCCCCCCCCCC(=O)OC [methyl myristate, methyl tetradecanoate]
direct diffusion, rod system compared with diffuser block [7]: better in the blocks than in the rod system

quantities found in the solution [9]: very low
Proportion of methyl laurate in the DAP pheromone ([10]; T = 6 j (instead of 2%)): laurate: 1.2%
Proportion of methyl laurate in the DAP pheromone ([10]; T = 22 j (instead of 2%)): laurate: 0.4%
Proportion of methyl laurate in the DAP pheromone ([10]; T = 13 d (instead of 2%)): laurate: 0.5%
direct diffusion over time [4]: decreases slightly over time
ratio of molecules diffused through the sticks [6, 11]: 51 % (w/w)
ratio of molecules diffused through the sticks [6, 12]: 37 % (w/w)
ratio of molecules diffused through the sticks [6, 13]: 20 % (w/w)
ratio of molecules diffused through the sticks [6, 14]: 17.5 % (w/w)
Structure (SMILES): CCCCCCCCCCCC(=O)OC [methyl laurate, methyl dodecanoate]
